Measured values taken from patent US12714688B2, “Margaric acid decreases PIEZ02-mediated pain” (The United States of America, as represented by The …, priority 2020, dated 2026).
“Also recorded” adds a separate entry of the source.

How the values were obtained:
[1] = system: mechano-activated currents of mouse DRG neurons; test: Whole-cell patch-clamp of mechano-activated currents in cultured mouse DRG neurons; conditions: 300 μM
Method: (§4) Cell culture and electrophysiology: Piezo1 knock-out mouse N2A (N2A^Piezo1−/−) cells were a gift from Dr. Gary R. Lewin, human Merkel cell carcinoma cell line (MCC13 cells; Cell Bank Australia reference number: CBA1338) were obtained from Sigma, and DRG neurons were obtained from sacrificed mice. N2A^Piezo1−/− cells were cultured in Dulbecco's Modified Eagle Medium (DMEM), 5% penicillin streptomycin and 10% fetal bovine serum (FBS); MCC13 cells were cultured in RPMI 1640 (with 2 mM L-glutamine+25 mM HEPES; Sigma), 5% penicillin-streptomycin and 10% FBS and; DRG neurons were cultured in DMEM, 1% penicillin-streptomycin, 1% MEM vitamin solution, 1% L-glutamine, and 10% horse serum. Prior to electrophysiological measurements, N2A^Piezo1−/−, MCC13 and DRG neurons were supplemented overnight (≈18 h) with MA. […] MA was obtained from Nu-Chek Prep, INC. The cultured cells were maintained at 37° C., 95% relative humidity, and 5% CO2.
For whole-cell recordings, the bath solution contained 140 mM NaCl, 6 mM KCl, 2 mM CaCl2), 1 mM MgCl2, 10 mM glucose, and 10 mM HEPES (pH 7.4; 300 mOsm). The pipette solution for voltage-clamp recordings contained: 140 mM CsCl, 5 mM EGTA, 1 mM CaCl2), 1 mM MgCl2, and 10 mM HEPES (pH 7.2); and for current clamp recordings: 140 mM KCl, 6 mM NaCl, 2 mM CaCl2), 1 mM MgCl2, 10 mM glucose, and 10 mM HEPES (pH 7.4; 300 mOsm); MA and bradykinin acetate salt (Sigma) perfused during experiments were dissolved in the bath solution to a final concentration of 300 μM for 2 min, and 1 μM for 5 min respectively; and for long exposure experiments bradykinin was supplemented to the culture medium and added to the cells 18-24 h prior recording. […] Pipettes were made out of borosilicate glass (Sutter Instruments) and were fire-polished before use until a resistance between 3 and 5 MΩ was reached.
During mechanical stimulation, currents were recorded at a constant voltage (−60 mV, voltage-clamp), and voltages were recorded without injecting current (current-clamp). Both variables were sampled at 100 kHz and low-pass filtered at 10 kHz using a MultiClamp™ 700 B amplifier and Clampex (Molecular Devices, LLC). […] In both cases, variables were sampled at 20 kHz and low-pass filtered at 10 kHz. Leak currents before mechanical stimulations were subtracted off-line from the current traces and data were digitally filtered at 2 kHz with ClampFit (Molecular Devices, LLC).
The blunt pipette was mounted on a micromanipulator at an ~45° angle and positioned 3-4 μm above from the cells without indenting them. Displacement measurements were obtained with a square-pulse protocol consisting of 1 μm incremental indentation steps, each lasting 200 ms with a 2-ms ramp in 10-s intervals. […]

human PIEZO2 = human PIEZO2 (Homo sapiens, UniProt Q9H5I5); test: Whole-cell patch-clamp of N2A^Piezo1−/− cells transfected with human Piezo2; conditions: 300 μM; 18 h
Method: as §4
(§5) For whole-cell recordings, the bath solution contained 140 mM NaCl, 6 mM KCl, 2 mM CaCl2), 1 mM MgCl2, 10 mM glucose, and 10 mM HEPES (pH 7.4; 300 mOsm). […]
(§6) During mechanical stimulation, currents were recorded at a constant voltage (−60 mV, voltage-clamp), and voltages were recorded without injecting current (current-clamp). […]

mice [2] = test: Hargreaves radiant heat test after daily hind paw injection; assay type: in vivo, mouse; conditions: MA 5 mM injected daily into hind paw for 7 days
Method: (§1) Mice behavior: MA solution: MA was prepared in sterile Dulbecco's phosphate buffered saline, with 70 g/L fatty acid free bovine serum albumin (BSA; Sigma), and MA to a final concentration of 5 mM. The solution was filtered to avoid undissolved materials.
(§2) Subjects: For the experiment 8-12 weeks old male and female C57B16/J mice (N=12; control n=6; male=3, female=3) MA (n=6; male=3, female=3) per experiment were used. Mice were housed under a 12 hr light dark cycle and granted access to food and water ad libitum.
Treatment: Animals were put in two groups (control and MA) and given injections in the plantar of the left hind paw for 7 days prior behavioral assessment. Injections were given as follows: Mouse is restrained by their tail, foot, and over shoulders scruff. The compound is delivered using a 3/10 cc insulin syringe into the plantar surface of the back foot of each mouse. The beveled needle is inserted at a 35-40° angle and 20-50 μl of the compound is injected subcutaneously. The needle is held in place for several seconds before being removed and the animal is returned to its home cage. […]
Thermal threshold (Hargreaves test): Animals were placed in small enclosures over a glass plate heated to 32° C. […] The latency for each rodent to withdraw the paw is recorded with three stimulus presentations administered per paw. […]

mouse PIEZO2 [3] = test: Whole-cell patch-clamp with mechanical indentation of N2A^Piezo1−/− cells transfected with Piezo2 variant 2 (V2); conditions: from IC50 values
Method: as §4
(§7) For whole-cell recordings, the bath solution contained 140 mM NaCl, 6 mM KCl, 2 mM CaCl2), 1 mM MgCl2, 10 mM glucose, and 10 mM HEPES (pH 7.4; 300 mOsm). The pipette solution for voltage-clamp recordings contained: 140 mM CsCl, 5 mM EGTA, 1 mM CaCl2), 1 mM MgCl2, and 10 mM HEPES (pH 7.2); and for current clamp recordings: 140 mM KCl, 6 mM NaCl, 2 mM CaCl2), 1 mM MgCl2, 10 mM glucose, and 10 mM HEPES (pH 7.4; 300 mOsm); MA and bradykinin acetate salt (Sigma) perfused during experiments were dissolved in the bath solution to a final concentration of 300 μM for 2 min, and 1 μM for 5 min respectively; and for long exposure experiments bradykinin was supplemented to the culture medium and added to the cells 18-24 h prior recording. For cytoskeleton disruption experiments, N2A^Piezo1−/− were incubated in media supplemented with 1 μM latrunculin A (Cayman Chemicals) for 1 h prior recordings. Pipettes were made out of borosilicate glass (Sutter Instruments) and were fire-polished before use until a resistance between 3 and 5 MΩ was reached.
(§8) During mechanical stimulation, currents were recorded at a constant voltage (−60 mV, voltage-clamp), and voltages were recorded without injecting current (current-clamp). Both variables were sampled at 100 kHz and low-pass filtered at 10 kHz using a MultiClamp™ 700 B amplifier and Clampex (Molecular Devices, LLC). […] Leak currents before mechanical stimulations were subtracted off-line from the current traces and data were digitally filtered at 2 kHz with ClampFit (Molecular Devices, LLC).
(§9) Mechanical stimulation: For indentation assays, N2A^Piezo1−/−, MCC13 DRG neurons, and human iPSC374 derived neurons were mechanically stimulated with a heat-polished blunt glass pipette (3-4 μm) driven by a piezo servo controller (E625, Physik Instrumente). The blunt pipette was mounted on a micromanipulator at an ~45° angle and positioned 3-4 μm above from the cells without indenting them. Displacement measurements were obtained with a square-pulse protocol consisting of 1 μm incremental indentation steps, each lasting 200 ms with a 2-ms ramp in 10-s intervals. The threshold of mechano-activated currents for each experiment was defined as the indentation step that evoked the first current deflection from the baseline.

mouse PIEZO2 [4] = molecular target: mouse PIEZO2 (Mus musculus, UniProt Q8CD54); test: as above; conditions: for IC50: IC50 of inhibition of PIEZO2 currents, mean±SEM
Method: as §4, §7, §8, §9

mice [5] = test: Von Frey test after acute inflammation by topical AITC; assay type: in vivo, mouse; conditions: MA treatment for 7 days, then AITC
Method: as §1, §2
Treatment: Animals were put in two groups (control and MA) and given injections in the plantar of the left hind paw for 7 days prior behavioral assessment. Injections were given as follows: Mouse is restrained by their tail, foot, and over shoulders scruff. […]
(§3) Mechanical threshold (Von Frey test): Punctate mechanical allodynia was measured using Von Frey monofilaments (Stoelting, Inc.) in varying grams of force (0.008-1 g). Animals were placed in small enclosures over a wire mesh and the plantar of the hind paw was poked with a filament and responses were recorded. Withdrawal responses were recorded when the animal lifted, shook, or licked the paw in response to stimulus presentation. […]

[6] = system: mechano-activated currents of rat DRG neurons; test: Whole-cell patch-clamp of mechano-activated currents in rat DRG neurons; conditions: 300 μM for 18 h
mouse DRG neurons [7] = test: Current-clamp recording of action potentials elicited by mechanical stimuli in mouse DRG neurons; assay type: cell-based
Source text: Subsequent sweeps had increments of 1 μm.

mouse DRG neurons [8] = test: Electrical excitability of mouse DRG neurons (voltage-gated currents, membrane potential, current injection); assay type: cell-based
mice [9] = test: Von Frey test, repeated injury model (daily hind paw injection); assay type: in vivo, mouse
Method: as §1, §2
Injections were given as follows: Mouse is restrained by their tail, foot, and over shoulders scruff. The compound is delivered using a 3/10 cc insulin syringe into the plantar surface of the back foot of each mouse. The beveled needle is inserted at a 35-40° angle and 20-50 μl of the compound is injected subcutaneously. […]
as §3

[10] = system: PIEZO2-PIEZO1 beam chimera; test: Whole-cell patch-clamp of N2A^Piezo1−/− cells transfected with Piezo2-Piezo1 beam chimera
Method: as §4
(§10) For whole-cell recordings, the bath solution contained 140 mM NaCl, 6 mM KCl, 2 mM CaCl2), 1 mM MgCl2, 10 mM glucose, and 10 mM HEPES (pH 7.4; 300 mOsm). The pipette solution for voltage-clamp recordings contained: 140 mM CsCl, 5 mM EGTA, 1 mM CaCl2), 1 mM MgCl2, and 10 mM HEPES (pH 7.2); and for current clamp recordings: 140 mM KCl, 6 mM NaCl, 2 mM CaCl2), 1 mM MgCl2, 10 mM glucose, and 10 mM HEPES (pH 7.4; 300 mOsm); MA and bradykinin acetate salt (Sigma) perfused during experiments were dissolved in the bath solution to a final concentration of 300 μM for 2 min, and 1 μM for 5 min respectively; and for long exposure experiments bradykinin was supplemented to the culture medium and added to the cells 18-24 h prior recording. For cytoskeleton disruption experiments, N2A^Piezo1−/− were incubated in media supplemented with 1 μM latrunculin A (Cayman Chemicals) for 1 h prior recordings. […]
as §6

Piezo2 V16 = test: Whole-cell patch-clamp of N2A^Piezo1−/− cells transfected with Piezo2 V16; conditions: 300 μM; 18 h
Method: as §4, §5, §6

rat DRG neurons = test: Current-clamp recording of action potentials elicited by mechanical stimuli in rat DRG neurons; conditions: 300 μM
Method: N2A^Piezo1−/− cells were cultured in Dulbecco's Modified Eagle Medium (DMEM), 5% penicillin streptomycin and 10% fetal bovine serum (FBS); MCC13 cells were cultured in RPMI 1640 (with 2 mM L-glutamine+25 mM HEPES; Sigma), 5% penicillin-streptomycin and 10% FBS and; DRG neurons were cultured in DMEM, 1% penicillin-streptomycin, 1% MEM vitamin solution, 1% L-glutamine, and 10% horse serum. […] The cultured cells were maintained at 37° C., 95% relative humidity, and 5% CO2.
For whole-cell recordings, the bath solution contained 140 mM NaCl, 6 mM KCl, 2 mM CaCl2), 1 mM MgCl2, 10 mM glucose, and 10 mM HEPES (pH 7.4; 300 mOsm). […] Pipettes were made out of borosilicate glass (Sutter Instruments) and were fire-polished before use until a resistance between 3 and 5 MΩ was reached.
During mechanical stimulation, currents were recorded at a constant voltage (−60 mV, voltage-clamp), and voltages were recorded without injecting current (current-clamp). Both variables were sampled at 100 kHz and low-pass filtered at 10 kHz using a MultiClamp™ 700 B amplifier and Clampex (Molecular Devices, LLC). To measure voltage-dependent currents, a square-pulse protocol consisting of 40-ms 20-mV incremental steps starting from −80 mV in 500-ms intervals with P/4 subtraction was used; and to record action potentials evoked by current injection, 40-ms 20-pA incremental steps were injected in 500-ms intervals. […]

[11] = molecular target: endogenous PIEZO2 currents in MCC13 (Homo sapiens, UniProt Q9H5I5); test: Whole-cell patch-clamp of mechanically stimulated MCC13 cells; conditions: 300 μM
Method: as §4, §10, §6

[12] = system: mechano-activated currents of DRG neurons; test: Bradykinin sensitization of mechano-activated currents in mouse DRG neurons; assay type: cell-based
Piezo2 V14 = test: Whole-cell patch-clamp of N2A^Piezo1−/− cells transfected with Piezo2 V14; conditions: 300 μM; 18 h
Method: as §4, §5, §6

mouse PIEZO2 (Mus musculus, UniProt Q8CD54), sequence (Q8CD54 whole entry): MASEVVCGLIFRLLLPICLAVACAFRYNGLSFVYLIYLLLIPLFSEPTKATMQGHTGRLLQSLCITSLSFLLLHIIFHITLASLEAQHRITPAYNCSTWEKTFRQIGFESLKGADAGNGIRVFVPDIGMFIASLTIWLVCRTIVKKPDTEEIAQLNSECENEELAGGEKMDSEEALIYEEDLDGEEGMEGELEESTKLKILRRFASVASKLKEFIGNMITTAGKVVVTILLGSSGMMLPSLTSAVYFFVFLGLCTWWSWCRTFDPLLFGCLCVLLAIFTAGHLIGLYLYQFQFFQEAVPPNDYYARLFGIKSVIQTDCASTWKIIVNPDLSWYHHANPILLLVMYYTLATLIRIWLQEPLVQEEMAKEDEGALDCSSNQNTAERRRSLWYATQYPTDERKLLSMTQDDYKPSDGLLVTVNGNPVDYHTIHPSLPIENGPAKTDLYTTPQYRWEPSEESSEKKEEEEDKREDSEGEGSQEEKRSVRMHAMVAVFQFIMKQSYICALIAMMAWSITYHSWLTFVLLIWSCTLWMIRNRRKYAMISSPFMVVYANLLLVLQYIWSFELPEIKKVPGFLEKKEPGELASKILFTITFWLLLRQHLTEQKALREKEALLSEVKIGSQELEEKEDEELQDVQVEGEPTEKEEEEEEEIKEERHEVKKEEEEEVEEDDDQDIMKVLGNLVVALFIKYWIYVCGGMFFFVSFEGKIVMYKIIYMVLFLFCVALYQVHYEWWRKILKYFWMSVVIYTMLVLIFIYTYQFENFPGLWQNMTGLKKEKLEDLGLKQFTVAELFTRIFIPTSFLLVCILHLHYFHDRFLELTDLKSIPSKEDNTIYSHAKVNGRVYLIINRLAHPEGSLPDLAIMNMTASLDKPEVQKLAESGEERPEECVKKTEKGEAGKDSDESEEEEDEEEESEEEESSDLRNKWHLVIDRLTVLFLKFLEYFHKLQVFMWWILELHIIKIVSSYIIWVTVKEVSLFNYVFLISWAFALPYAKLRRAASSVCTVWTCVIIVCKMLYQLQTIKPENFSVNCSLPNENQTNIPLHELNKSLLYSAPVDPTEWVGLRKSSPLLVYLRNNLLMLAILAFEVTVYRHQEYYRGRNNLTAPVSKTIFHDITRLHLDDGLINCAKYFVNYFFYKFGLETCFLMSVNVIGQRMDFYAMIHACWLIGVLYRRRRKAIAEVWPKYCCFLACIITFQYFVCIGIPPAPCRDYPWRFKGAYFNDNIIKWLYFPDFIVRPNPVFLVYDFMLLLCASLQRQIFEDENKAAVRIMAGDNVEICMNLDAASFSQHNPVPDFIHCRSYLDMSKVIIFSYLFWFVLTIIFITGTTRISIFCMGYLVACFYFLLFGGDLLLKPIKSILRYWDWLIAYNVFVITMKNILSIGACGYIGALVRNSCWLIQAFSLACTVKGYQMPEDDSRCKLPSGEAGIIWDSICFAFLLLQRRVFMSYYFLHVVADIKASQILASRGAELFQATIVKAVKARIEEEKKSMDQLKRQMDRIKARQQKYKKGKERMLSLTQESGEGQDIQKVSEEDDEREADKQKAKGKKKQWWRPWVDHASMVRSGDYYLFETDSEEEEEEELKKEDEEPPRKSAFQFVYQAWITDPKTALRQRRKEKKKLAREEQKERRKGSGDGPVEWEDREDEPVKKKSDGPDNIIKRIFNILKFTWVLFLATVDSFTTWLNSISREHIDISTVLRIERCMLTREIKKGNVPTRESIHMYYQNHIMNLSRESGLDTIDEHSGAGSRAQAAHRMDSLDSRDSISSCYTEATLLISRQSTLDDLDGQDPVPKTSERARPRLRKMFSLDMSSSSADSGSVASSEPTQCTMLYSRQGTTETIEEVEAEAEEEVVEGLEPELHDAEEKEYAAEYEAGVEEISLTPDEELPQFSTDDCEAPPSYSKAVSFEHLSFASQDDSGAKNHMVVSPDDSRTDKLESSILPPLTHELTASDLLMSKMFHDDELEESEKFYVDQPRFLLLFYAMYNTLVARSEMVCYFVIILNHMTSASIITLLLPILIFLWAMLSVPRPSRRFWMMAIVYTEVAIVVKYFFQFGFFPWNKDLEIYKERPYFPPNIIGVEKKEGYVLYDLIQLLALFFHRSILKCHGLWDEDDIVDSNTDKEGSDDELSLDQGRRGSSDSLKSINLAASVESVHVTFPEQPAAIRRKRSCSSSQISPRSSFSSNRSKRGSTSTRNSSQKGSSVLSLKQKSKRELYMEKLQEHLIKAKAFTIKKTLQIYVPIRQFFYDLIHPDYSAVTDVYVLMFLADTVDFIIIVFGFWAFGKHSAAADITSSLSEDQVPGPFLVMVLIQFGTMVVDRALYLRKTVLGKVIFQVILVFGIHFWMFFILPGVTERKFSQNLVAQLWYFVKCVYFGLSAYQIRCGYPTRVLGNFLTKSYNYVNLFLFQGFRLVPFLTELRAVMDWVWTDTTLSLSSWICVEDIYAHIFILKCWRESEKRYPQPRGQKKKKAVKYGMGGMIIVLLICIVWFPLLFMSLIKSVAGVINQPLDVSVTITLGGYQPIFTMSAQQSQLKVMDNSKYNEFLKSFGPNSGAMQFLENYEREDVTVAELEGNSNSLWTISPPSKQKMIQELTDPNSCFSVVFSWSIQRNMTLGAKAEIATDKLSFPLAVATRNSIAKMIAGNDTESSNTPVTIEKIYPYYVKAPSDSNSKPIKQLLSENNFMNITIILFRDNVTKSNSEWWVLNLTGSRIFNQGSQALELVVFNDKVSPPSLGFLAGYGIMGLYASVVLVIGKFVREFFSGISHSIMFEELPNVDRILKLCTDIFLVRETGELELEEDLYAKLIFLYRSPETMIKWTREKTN

SMILES: CCCCCCCCCCCCCCCCC(=O)O [MA, heptadecanoic acid]
- effect on displacement threshold [1]: increasing the displacement threshold
- effect on mechano-evoked currents ([1]; rapidly, intermediate and slowly inactivating currents): inhibit all mechanosensitive currents; also recorded: decreases mechano-activated currents; also recorded: decreased the current magnitude of all DRG neurons mechano-evoked currents
- mechano-currents of human PIEZO2 (human PIEZO2): confirmed these results
- thermal withdrawal latencies / hyper-responsiveness to heat (mice [2]): did not affect the ability of mice to sense thermal stimuli; also recorded: has no effect on this hyper-responsiveness to heat; also recorded: had no effect on thermal withdrawal latencies
- times more MA needed to inhibit PIEZO2 than PIEZO1 (mouse PIEZO2 [3]): ~ 7 times
- effect on PIEZO2 inactivation (mouse PIEZO2 [4]; 50 μM each day for 4 days): without altering PIEZO2 inactivation
- effect on displacement threshold (mouse PIEZO2 [4]; 50 μM each day for 4 days): increases the displacement threshold
- decrease of PIEZO2 currents (mouse PIEZO2 [4]; 50 μM each day over four days): 65%
- effect on PIEZO2 currents (mouse PIEZO2 [4]; 1-600 μM overnight): inhibits heterologously-expressed mouse PIEZO2 currents; also recorded: inhibits PIEZO2 currents in a concentration-dependent manner
- IC50 (mouse PIEZO2 [4]; MA 1-600 μM overnight (18 h), normalized current densities at maximum displacement, Boltzmann fit): 191 ± 14.7 µM
- IC50 (mouse PIEZO2 [4]; latrunculin A-treated cells, MA 1-600 μM 18 h plus latrunculin A 1 μM for 1 h): 75.4 ± 13.3 µM
- MA concentration required to decrease PIEZO2 currents (mouse PIEZO2 [4]; overnight supplementation): higher than 100 μM
- effect on time constant of inactivation (mouse PIEZO2 [4]; overnight supplementation): without affecting the time constant of inactivation
- increase of displacement threshold required to elicit PIEZO2 currents vs control cells (mouse PIEZO2 [4]; overnight supplementation): three fold
- responses to von Frey filaments after topical AITC (mice [5]): does not increase hyper-responsivity to punctate stimuli; also recorded: responded with sensitivities similar to their basal response
- effect on mechano-activated currents [6]: decreases mechano-activated currents in rat DRG neurons; also recorded: inhibit all mechanosensitive currents
- action potential firing elicited by mechanical stimuli (mouse DRG neurons [7]; 300 μM): reduces neuronal action potential firing elicited by mechanical stimuli; also recorded: decreases action potentials elicited by mechanical stimuli; also recorded: specifically decrease action potential firing evoked by mechanical stimulation
- indentation steps eliciting action potentials (mouse DRG neurons [7]; 300 μM, control 7-12 μm): 12 μm
- action potential generation (mouse DRG neurons [7]; 300 μM, indentation steps smaller than 12 μm): completely inhibits action potential generation
- mechanical threshold required to fire action potentials (mouse DRG neurons [7]; MA supplementation): increases the mechanical threshold required for DRG neurons to fire action potentials
- action potentials evoked by 1 Hz mechanical stimulus trains (mouse DRG neurons [7]; MA-enriched neurons vs control): evoked less action potentials than the control
- electrical excitability (mouse DRG neurons [8]; 300 μM): does not alter mouse DRG neurons electrical excitability; also recorded: does not alter DRG neuronal electrical excitability
- action potential firing elicited by current injection (mouse DRG neurons [8]; 300 μM vs control): no difference in action potential firing elicited by current injection
- amplitudes of voltage-activated inward Na+ and outward K+ currents (mouse DRG neurons [8]; 300 μM vs control): no significant differences
- membrane potential (mouse DRG neurons [8]; 300 μM, whole-cell configuration): did not alter membrane potential
- hypersensitivity to punctate touch (tactile allodynia) (mice [9]; MA 5 mM injected daily into hind paw for 7 days): ameliorates hypersensitivity to touch after injury; also recorded: selectively decreases tactile allodynia; also recorded: protects against tactile allodynia; also recorded: do not develop; also recorded: failed to develop this type of heightened withdrawal response
- baseline touch responses (mice [9]; acute sub-dermal injection): had no effect on baseline touch responses
- sensitivity of chimera to MA inhibition ([10]; 100 μM overnight, compared with PIEZO2): much more sensitive to MA inhibition
- mechanical stimulus needed to open chimera ([10]; MA 100 μM overnight): requires a higher mechanical stimulus to open
- effect on activity of Piezo2 V16 (Piezo2 V16): inhibited the activity
- action potential firing elicited by mechanical stimuli (rat DRG neurons): reduces neuronal action potential firing elicited by mechanical stimuli
- effect on displacement threshold [11]: increasing the displacement threshold
- effect on mechano-activated (endogenous PIEZO2) currents [11]: decreases mechano-activated currents; also recorded: decreases endogenous PIEZO2 currents
- current density after bradykinin administration ([12]; MA 300 μM 18 h, bradykinin 1 μM perfusion, 10 μm displacement, mean±SD, control 3.36±1.68): 3.64±1.96 pA/pF
- mechano-currents after sensitization with bradykinin ([12]; MA 300 μM 18 h, acute bradykinin 1 μM): decreases the mechano-currents, even after sensitization with bradykinin
- current densities after combined overnight incubation with bradykinin ([12]; bradykinin 1 μM and MA 300 μM, 18 h both): restored the current densities to those of control neurons
- effect on activity of Piezo2 V14 (Piezo2 V14): inhibited the activity
